Laboratory results from ChEMBL document CHEMBL1146575, “Imidazole alkaloids from Lepidium meyenii” (2003).

Key:
Type in all cases: functional
[1] = system: A549; experiment: Cytotoxicity against human A549 cells; details: read-out: ED50 (the source's name)
[2] = system: PC-3; experiment: Cytotoxicity against human PC3 cells; details: read-out: ED50 (the source's name)
[3] = Cytotoxicity against human FDIGROV cells; details: read-out: ED50 (the source's name)
[4] = system: HT-29; experiment: Cytotoxicity against human HT-29 cells; details: read-out: ED50 (the source's name)
[5] = system: MIA PaCa-2; experiment: Cytotoxicity against human MIAPaCa2 cells; details: read-out: ED50 (the source's name)
[6] = Cytotoxicity against human MDA231 cells; details: MDA-MB-231, read-out: ED50 (the source's name)
[7] = system: UMUC3; experiment: Cytotoxicity against human UM-UC-3 cells; details: read-out: ED50 (the source's name)
[8] = Cytotoxicity against human A4982LM cells; details: read-out: ED50 (the source's name)

Row | SMILES | EC50 [1] | EC50 [2] | EC50 [3] | EC50 [4] | EC50 [5] | EC50 [6] | EC50 [7] | EC50 [8]
1 | Cc1c(C)[n+](Cc2ccccc2)cn1Cc1ccccc1.[Cl-] [LEPIDILINE A] | > 10 µg/mL | > 10 µg/mL | 7.39 µg/mL | > 10 µg/mL | > 10 µg/mL | > 10 µg/mL | > 10 µg/mL | > 10 µg/mL
2 | Cc1c(C)[n+](Cc2ccccc2)c(C)n1Cc1ccccc1.[Cl-] [LEPIDILINE B] | > 10 µg/mL | > 10 µg/mL | 5.26 µg/mL | > 10 µg/mL | 1.38 µg/mL | 1.66 µg/mL | 6.47 µg/mL | > 10 µg/mL
